Measured values as given in patent US9011925B2, “Method for preparing polysaccharide nanocomposite particles and uses of the same” (China Medical University, priority 2011, dated 2015).
In brackets after ≈: the same amount, converted by molar mass.

Key:
[1] = Surface potential analysis (Zetasizer, DLS); type: physicochemical; settings: diluted 50-folds with water, sonicated 1 hour
Procedure: [Surface Potential Analysis]
The samples were diluted 50-folds with water, and sonicated for 1 hour by using an ultrasonic vibration machine. Then, the samples dissolved in water were analyzed by using a Zetasizer machine (Malvern ZS90) based on the principle of dynamic light scattering (DLS) to observe the surface potential and particle size distribution of the particles.

[2] = test system: lung cancer cells, breast cancer cells, and rectal cancer cells; settings: cited from earlier work
[3] = test system: Colo 205 human rectum tumor cells; assay: Cytotoxicity assay (MTT); type: cell-based; settings: colo 205 cells, 72th hour, read-out: 1050 (50% concentration of inhibition)
Procedure: Colo 205 human rectum tumor cells were inoculated in a 24-well culture dish (1×10^4 cells/well), and incubated in an incubator at 37° C. under 5% CO2 for 24 hours. Then, the active component (KCY-Tai 1 and KCY-Tai 2) or polysaccharide nanocomposite particles (KCY-Tai 1-CNPs and KCY-Tai 2-CNPs 2) with different concentrations (0.39 to 12.5 μg/ml) was respectively added into the culture dish, and the cells were incubated for 24, 72, and 120 hours. The cells were washed with 1×PBS twice. MTT (3-(4,5-dimethyl thiazole-2-yl)-2,5-diphenyl tetrazolium bromide) (0.5 mg/ml) was added to the culture dish (200 μl/well), and the dish was placed in an incubator at 37° C. under 5% CO2. After incubating for 4 hours, MTT was sucked out and removed, and […] dimethyl sulfoxide (DMSO) was added into each well. After incubating on the shaker for 30 minutes, […] of the sample was sucked out from each well and transferred into a 96-well culture dish. The absorbance of the sample was determined under the wavelength of 570 nm by an enzyme-linked immunosorbent assay (ELISA) reader.

[4] = test system: HepG2/A2; settings: cited from earlier work
[5] = test system: p53 protein; settings: HepG2/A2 cells; cited from earlier work

| Surface potential (mV) [1] | SMILES | cytotoxicity effects on lung, breast and rectal cancer cells [2] | IC50 [3] | cell cycle effect ([4]; accumulation of cyclin B1/cdc2 complex) | apoptosis markers (micronucleation, DNA fragmentation, caspase-3) [4] | effect on mitotic spindle (immunofluorescence staining) [4] | p53 protein activation [5] |
| --- | --- | --- | --- | --- | --- | --- | --- |
| −11.8 mV | COc1cc(/C=C2/C(=O)OC/C2=C/c2ccc3c(c2)OCO3)cc(OC)c1OC [KCY-Tai 2] | significant cytotoxicity effects | 0.7 µg/mL (≈ 1.77 µM) |  |  |  |  |
| −22.5 mV | O=C1OCC(=C/c2ccc3c(c2)OCO3)/C1=C\c1ccc2c(c1)OCO2 [KCY-Tai 1] | significant cytotoxicity effects | 3 µg/mL (≈ 8.56 µM) | arrested at G2/M phase | activation of caspase-3 | interrupt the formation of mitotic spindle | activation of p53 protein |
